Source: patent US9556179B2 (BRISTOL-MYERS SQUIBB COMPANY, priority 2012, dated 2017)

Experiments:
[1] = target: CK1δ (Homo sapiens (Human), UniProt P48730); assay: CK1δ kinase assay (Caliper LABCHIP electrophoretic separation of fluoresceinated peptide substrate and product); type: biochemical; conditions: 200 pM enzyme, 50 μM ATP, 22 hours at room temperature
Method in brief: (§1)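 Eleven-concentration compound series in kinase reactions run for 22 hours at room temperature. Terminated with EDTA, with product conversion read by electrophoretic separation. Non-linear regression gave IC50.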

[2] = target: CK1ε (Homo sapiens (Human), UniProt P49674); assay: CK1ε kinase assay (Caliper LABCHIP electrophoretic separation of fluoresceinated peptide substrate and product); type: biochemical; conditions: 200 pM enzyme, 50 μM ATP, 22 hours at room temperature
CK1ε, sequence (P49674 whole entry): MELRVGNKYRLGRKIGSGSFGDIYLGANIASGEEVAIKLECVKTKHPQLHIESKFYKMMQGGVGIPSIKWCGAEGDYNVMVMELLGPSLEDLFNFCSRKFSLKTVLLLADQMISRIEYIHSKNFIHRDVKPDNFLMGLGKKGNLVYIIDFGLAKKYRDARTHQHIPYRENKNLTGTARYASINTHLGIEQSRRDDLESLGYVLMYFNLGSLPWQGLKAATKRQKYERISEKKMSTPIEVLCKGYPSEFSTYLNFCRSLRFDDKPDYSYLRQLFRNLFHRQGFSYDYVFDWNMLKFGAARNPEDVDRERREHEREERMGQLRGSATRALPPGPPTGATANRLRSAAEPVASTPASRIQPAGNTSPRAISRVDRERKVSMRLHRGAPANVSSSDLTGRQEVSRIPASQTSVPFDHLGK
Method in brief: as §1

CK1δ, sequence (P48730 whole entry): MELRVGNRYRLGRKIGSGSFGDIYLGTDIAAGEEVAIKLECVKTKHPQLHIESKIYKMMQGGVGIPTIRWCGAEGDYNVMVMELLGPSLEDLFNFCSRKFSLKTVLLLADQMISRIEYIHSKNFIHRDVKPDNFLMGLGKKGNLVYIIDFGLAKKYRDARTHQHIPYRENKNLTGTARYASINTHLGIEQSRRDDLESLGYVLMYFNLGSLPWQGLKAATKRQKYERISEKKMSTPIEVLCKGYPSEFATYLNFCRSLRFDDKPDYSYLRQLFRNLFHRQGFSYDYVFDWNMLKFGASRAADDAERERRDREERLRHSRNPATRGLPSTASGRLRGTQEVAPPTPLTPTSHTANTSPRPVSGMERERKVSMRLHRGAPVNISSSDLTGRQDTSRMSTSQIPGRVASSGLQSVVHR

IC50 [1] [nM] | IC50 [2] [nM] | SMILES
0.5 | 3.9 | CC1(C(=O)N2CCn3c(nc(-c4ccc(F)cc4)c3-c3ccc4nc(NC(=O)c5ccnc(F)c5)cn4n3)C2)COC1 [Compound 468, 2-Fluoro-N-(6-(2-(4-fluorophenyl)-7-(3-methyloxetane-3-carbonyl)-5,6,7,8-tetrahydroimidazo[1,2-a]pyrazin-3-yl)imidazo[1,2-b]pyridazin-2-yl)isonicotinamide]
0.9 | 10.4 | O=C(Nc1cn2nc(-c3c(-c4ccc(F)cc4)ncn3C3CC3)ccc2n1)c1ccnc(F)c1 [Compound 426, N-(6-(1-Cyclopropyl-4-(4-fluorophenyl)-1H-imidazol-5-yl)imidazo[1,2-b]pyridazin-2-yl)-2-fluoroisonicotinamide]
0.534 | 3.92 | Cc1nc(-c2ccc(F)cc2)c(-c2ccc3nc(NC(=O)c4ccc[nH]4)cn3n2)n1C [Compound 358, N-(6-(4-(4-fluorophenyl)-1,2-dimethyl-1H-imidazol-5-yl)imidazo[1,2-b]pyridazin-2-yl)-1H-pyrrole-2-carbox-amide]
0.566 | 4.01 | Cc1nc(-c2ccc(F)cc2)c(-c2ccc3nc(NC(=O)c4cn[nH]c4)cn3n2)n1C [Compound 364, N-(6-(4-(4-fluorophenyl)-1,2-dimethyl-1H-imidazol-5-yl)imidazo[1,2-b]pyridazin-2-yl)-1H-pyrazole-4-carboxamide]
0.354 | 2.26 | Cc1cc(-c2nc(C)n(CC(F)F)c2-c2ccc3nc(NC(=O)c4ccnc(F)c4)cn3n2)ccc1F [Compound 297]
8.88 | 78.1 | Cc1nc(-c2ccc(F)cc2)c(-c2ccc3nc(NC(=O)[C@@H]4CCC(=O)N4)cn3n2)n1C [Compound 376, N-(6-(4-(4-fluorophenyl)-1,2-dimethyl-1H-imidazol-5-yl)imidazo[1,2-b]pyridazin-2-yl)-5-oxo-L-prolinamide]
0.66 | 2.7 | Cc1nc(-c2ccc(F)cc2)c(-c2ccc3nc(NC(=O)c4ccc(Cl)cc4F)cn3n2)n1C [Compound 398, 4-chloro-2-fluoro-N-(6-(4-(4-fluorophenyl)-1,2-dimethyl-1H-imidazol-5-yl)imidazo[1,2-b]pyridazin-2-yl) benzamide]
0.7 | 6.4 | O=C(Nc1cn2nc(-c3c(-c4ccc(F)cc4)nc4n3CCN(C(=O)NCCC(F)(F)F)C4)ccc2n1)c1ccnc(F)c1 [Compound 486, 3-(2-(2-Fluoroisonicotinamido)imidazo[1,2-b]pyridazin-6-yl)-2-(4-fluorophenyl)-N-(3,3,3-trifluoropropyl)-5,6-dihydroimidazo[1,2-a]pyrazine-7(8H)-carboxamide]
1.14 | 19.6 | Cc1nc(-c2ccc(F)cc2)c(-c2ccc3nc(NC(=O)c4ccnc(F)c4)c(C)n3n2)n1C [Compound 413, 2-Fluoro-N-(6-(4-(4-fluorophenyl)-1,2-dimethyl-1H-imidazol-5-yl)-3-methylimidazo[1,2-b]pyridazin-2-yl)isonicotinamide]

The next lines start with the compound.

SMILES | IC50 [1] [nM] | IC50 [2] [nM]
N#Cc1ccc(C(=O)N2CCC(n3cnc(-c4ccc(F)cc4)c3-c3ccc4nc(NC(=O)c5ccnc(F)c5)cn4n3)CC2)cc1 [Compound 52, N-(6-(1-(1-(4-cyanobenzoyl)piperidin-4-yl)-4-(4-fluorophenyl)-1H-imidazol-5-yl)imidazo[1,2-b]pyridazin-2-yl)-2-fluoroisonicotinamide] | 0.347 | 1.44
O=C(Nc1cn2nc(-c3c(-c4ccc(F)cc4)nc4ccc(N5CCOCC5)nn34)ccc2n1)c1ccncc1 [Compound 226, N-(2-(4-fluorophenyl)-6-morpholino-[3,6′-biimidazo[1,2-b]pyridazin]-2′-yl)isonicotinamide] | 4.94 | 10.1
Cc1nc(-c2ccc(Cl)cc2)c(-c2ccc3nc(NC(=O)c4ccnc(F)c4)cn3n2)n1CC(F)F [Compound 294, N-(6-(4-(4-chlorophenyl)-1-(2,2-difluoroethyl)-2-methyl-1H-imidazol-5-yl)imidazo[1,2-b]pyridazin-2-yl)-2-fluoroiso-nicotinamide] | 0.208 | 4.03
Nc1cc(C(=O)Nc2cn3nc(-c4c(-c5ccc(F)cc5)nc5ccccn45)ccc3n2)ccn1 [Compound 194, 2-amino-N-(6-(2-(4-fluorophenyl)imidazo[1,2-a]pyridin-3-yl)imidazo[1,2-b]pyridazin-2-yl) isonicotinamide] | 0.715 | 13.8
O=C(CN1CCOCC1)Nc1cn2nc(-c3c(-c4ccc(F)cc4)nc4ccccn34)ccc2n1 [Compound 221, N-(6-(2-(4-fluorophenyl)imidazo[1,2-a]pyridin-3-yl)imidazo[1,2-b]pyridazin-2-yl)-2-morpholinoacetamide] | 4.06 | 42.2
Cc1nc(-c2ccc(F)cc2)c(-c2ccc3nc(NC(=O)c4ccnc(F)c4)cn3n2)n1C1CCN(CCC#N)CC1 [Compound 144, N-(6-(1-(1-(2-cyanoethyl)piperidin-4-yl)-4-(4-fluorophenyl)-2-methyl-1H-imidazol-5-yl)imidazo[1,2-b]pyridazin-2-yl)-2-fluoroisonicotinamide] | 0.254 | 1.55
Cc1nc(-c2ccc(F)cc2)c(-c2ccc3nc(NC(=O)c4ccnc(F)c4)cn3n2)n1CCF [Compound 288, 2-Fluoro-N-(6-(1-(2-fluoroethyl)-4-(4-fluorophenyl)-2-methyl-1H-imidazol-5-yl)imidazo[1,2-b]pyridazin-2-yl)isonicotinamide] | 0.11 | 0.222
Cc1nc(-c2ccc(F)cc2)c(-c2ccc3nc(NC(=O)c4ccnc(F)c4)cn3n2)n1C1CCN(CCCC(F)(F)F)CC1 [Compound 146, 2-fluoro-N-(6-(4-(4-fluorophenyl)-2-methyl-1-(1-(4,4,4-trifluorobutyl)piperidin-4-yl)-1H-imidazol-5-yl)imidazo[1,2-b]pyridazin-2-yl)isonicotinamide] | 2.24 | 24.8
O=C(Nc1cn2nc(-c3c(-c4ccc(F)cc4)ncn3C3CCN(CCCF)CC3)ccc2n1)c1cc(F)nc(F)c1 [Compound 88, 2,6-difluoro-N-(6-(4-(4-fluorophenyl)-1-(1-(3-fluoropropyl)piperidin-4-yl)-1H-imidazol-5-yl)imidazo[1,2-b]pyridazin-2-yl)isonicotinamide] | 0.38 | 2.56
O=C(Nc1cn2nc(-c3c(-c4ccc(F)cc4)ncn3C3CCN(C(=O)CCC(F)(F)F)CC3)ccc2n1)c1ccnc(F)c1 [Compound 59, 2-fluoro-N-(6-(4-(4-fluorophenyl)-1-(1-(4,4,4-trifluorobutanoyl)piperidin-4-yl)-1H-imidazol-5-yl)imidazo[1,2-b]pyridazin-2-yl)isonicotinamide] | 0.579 | 1.97
O=C(Nc1cn2nc(-c3c(-c4ccc(F)cc4)nc(C4CC4)n3C3CCNCC3)ccc2n1)c1cccc(-c2cccnc2)c1 [Compound 135, N-(6-(2-cyclopropyl-4-(4-fluorophenyl)-1-(piperidin-4-yl)-1H-imidazol-5-yl)imidazo[1,2-b]pyridazin-2-yl)-3-(pyridin-3-yl)benzamide] | 0.745 | 2.6
CC(C)CCN1CCC(n2cnc(-c3ccc(F)cc3)c2-c2ccc3nc(NC(=O)c4ccnc(F)c4)cn3n2)CC1 [Compound 32, 2-fluoro-N-(6-(4-(4-fluorophenyl)-1-(1-isopentylpiperidin-4-yl)-1H-imidazol-5-yl)imidazo[1,2-b]pyridazin-2-yl)isonicotinamide] | 0.602 | 10.7
O=C(Nc1cn2nc(-c3c(-c4ccc(F)cc4)nc4ccccn34)ccc2n1)c1cccc(-c2nccs2)c1 [Compound 211, N-(6-(2-(4-fluorophenyl)imidazo[1,2-a]pyridin-3-yl)imidazo[1,2-b]pyridazin-2-yl)-3-(thiazol-2-yl)benzamide] | 1.96 | 6.77
O=C(Nc1cn2nc(-c3c(-c4ccc(F)cc4)nc4ccccn34)ccc2n1)c1ccncc1F [Compound 200, 3-fluoro-N-(6-(2-(4-fluorophenyl)imidazo[1,2-a]pyridin-3-yl)imidazo[1,2-b]pyridazin-2-yl) isonicotinamide] | 1.78 | 4.61
O=C(Nc1cn2nc(-c3c(-c4ccc(F)cc4)nc4ccccn34)ccc2n1)c1csc(-c2cccnc2)n1 [Compound 188, N-(6-(2-(4-fluorophenyl)imidazo[1,2-a]pyridin-3-yl)imidazo[1,2-b]pyridazin-2-yl)-2-(pyridin-3-yl)thiazole-4-carboxamide] | 3.56 | 9.8
CC(C)(C)COC(=O)N1CCC(n2cnc(-c3ccc(F)cc3)c2-c2ccc3nc(NC(=O)c4ccnc(F)c4)cn3n2)CC1 [Compound 75, neopentyl 4-(5-(2-(2-fluoroisonicotinamido)imidazo[1,2-b]pyridazin-6-yl)-4-(4-fluorophenyl)-1H-imidazol-1-yl)piperidine-1-carboxylate] | 1.4 | 3.49
O=C(Nc1cn2nc(-c3c(-c4ccc(F)cc4)ncn3C3CCN(C(=O)CCCl)CC3)ccc2n1)c1ccnc(F)c1 [Compound 70, N-(6-(1-(1-(3-chloropropanoyl)piperidin-4-yl)-4-(4-fluorophenyl)-1H-imidazol-5-yl)imidazo[1,2-b]pyridazin-2-yl)-2-fluoroisonicotinamide] | 0.143 | 0.493
O=C(Nc1cn2nc(-c3c(-c4ccc(F)cc4)nc4ccccn34)ccc2n1)c1cccc(-c2cccnc2)c1 [Compound 204, N-(6-(2-(4-fluorophenyl)imidazo[1,2-a]pyridin-3-yl)imidazo[1,2-b]pyridazin-2-yl)-3-(pyridin-3-yl)benzamide] | 2.09 | 1.83
CC(C)(C)c1cc(Cn2cnc(-c3ccc(F)cc3)c2-c2ccc3nc(NC(=O)c4ccnc(F)c4)cn3n2)n[nH]1 [Compound 264] | 41.5 | 156
